What was measured:
Type in all cases: biochemical
[1] = biological target: NADH oxidase (NOX) (Sus scrofa, UniProt P24964); test: Enzyme activity test, NOX
Description: (§1) Take NADH oxidase (NOX), succinate-cytochrome C oxidase (SCO), and Complex III as target enzymes, the inhibitory activity of the compound of Formula (I) was tested.
(§2) ^a NOX is generally used to detect an inhibitor of Complex I and Complex III; SCO is generally used to detect an inhibitor of Complex II and Complex III. Thus, an inhibitor of Complex III should have inhibitory activity on the two enzymes.

[2] = biological target: succinate-cytochrome C oxidase (SCO) (Sus scrofa, UniProt P24964); test: Enzyme activity test, SCO
Sequence of succinate-cytochrome C oxidase (SCO) (P24964 whole entry): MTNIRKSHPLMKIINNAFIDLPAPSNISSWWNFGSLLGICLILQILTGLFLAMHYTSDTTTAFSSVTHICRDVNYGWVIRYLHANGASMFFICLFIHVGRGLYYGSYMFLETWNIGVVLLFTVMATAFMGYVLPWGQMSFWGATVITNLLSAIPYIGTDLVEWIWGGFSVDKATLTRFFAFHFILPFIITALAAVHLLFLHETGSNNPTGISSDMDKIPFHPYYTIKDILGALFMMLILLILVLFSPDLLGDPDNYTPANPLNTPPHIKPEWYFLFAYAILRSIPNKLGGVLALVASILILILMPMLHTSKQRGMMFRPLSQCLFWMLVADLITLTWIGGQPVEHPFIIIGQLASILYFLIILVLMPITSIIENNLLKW
Description: as §1, §2

[3] = biological target: T1, cytochrome bc1 complex of pig heart (Sus scrofa, UniProt P24964); test: Enzyme activity test, Complex III; settings: cytochrome bc1 complex of pig heart; read-out: IC50 (nM) Complex III
T1 construct: The test target is cytochrome bc1 complex of pig heart; from tissue; host or cells: pig heart
T1 sequence (P24964 whole entry, one chain of several): as the sequence (P24964 whole entry) above
Description: as §1
^b The test target is cytochrome bc1 complex of pig heart.

Sequence of NADH oxidase (NOX) (P24964 whole entry): as above

Question: How did the IC50 [1] turn out when `CO/C=C(/C(=O)OC)c1ccccc1Oc1cc(Oc2ccccc2C#N)ncn1` [Azoxystrobin, azoxystrobin, reference compound] was run?
Answer: 27 nM

Question: And the IC50 [2]?
Answer: 13 nM

Question: And the IC50 [3]?
Answer: 200 nM

From patent publication US9422254B2, “Methoxyacrylate-based fungicide and methods for preparing and using the same” (priority 2008, dated 2016)
